Assay results: PubChem BioAssay AID248 (DTP/NCI, 2004)
Several values for one entry are separate records, joined by “and”; a condition that tells them apart may be missing. Equal entries are not always repeated. Inconclusive results and toxic doses are left out. Cut-off read from the data, not from the text of the source: active = T/C of 150% or more; inactive = T/C below 125%.

Test system: L1210 leukemia ip in BDF1 mice, survival T/C
Experiment: NCI In Vivo Anticancer Drug Screen. Data for tumor model L1210 Leukemia (intraperitoneal) in B6D2F1 (BDF1) mice
Conditions: endpoint: mean survival time, higher = longer survival
Procedure, shortened: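 Mice bearing the transplanted tumor received compound or vehicle. Survival of the treated group was divided by that of the vehicle-treated control group to give the ratio.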

[1] = dose: 100.0 mg/kg/injection, schedule: Q04DX003 (ip), vehicle: Klucel (hydroxypropylcellulose) (HPC)
[2] = dose: 200.0 mg/kg/injection, schedule: Q04DX003 (ip), vehicle: Klucel (hydroxypropylcellulose) (HPC)
[3] = dose: 50.0 mg/kg/injection, schedule: Q04DX003 (ip), vehicle: saline
[4] = dose: 50.0 mg/kg/injection, schedule: Q04DX003 (ip), vehicle: saline with Tween-80
[5] = dose: 100.0 mg/kg/injection, schedule: Q01DX001 (ip), vehicle: saline
[6] = dose: 100.0 mg/kg/injection, schedule: Q04DX003 (ip), vehicle: saline with Tween-80
[7] = dose: 200.0 mg/kg/injection, schedule: Q01DX001 (ip), vehicle: saline
[8] = dose: 200.0 mg/kg/injection, schedule: Q04DX003 (ip), vehicle: saline with Tween-80
[9] = dose: 400.0 mg/kg/injection, schedule: Q01DX001 (ip), vehicle: saline
[10] = dose: 100.0 mg/kg/injection, schedule: Q04DX003 (ip), vehicle: saline
[11] = dose: 200.0 mg/kg/injection, schedule: Q04DX003 (ip), vehicle: saline

Measured: T/C

COC(=O)CCC(C)(C)[N+](=O)[O-]
inactive: dose: 100.0 mg/kg/injection, schedule: Q01DX009 (ip), vehicle: saline 113 % of control | dose: 200.0 mg/kg/injection, schedule: Q01DX009 (ip), vehicle: saline 104 % of control | dose: 400.0 mg/kg/injection, schedule: Q01DX009 (ip), vehicle: saline 102 % of control

CSc1nc(NC(=O)CCl)cc(=O)[nH]1
inactive: dose: 25.0 mg/kg/injection, schedule: Q01DX009 (ip), vehicle: Klucel (hydroxypropylcellulose) (HPC) 93 % of control and 97 % of control and 89 % of control | dose: 100.0 mg/kg/injection, schedule: Q01DX009 (ip), vehicle: Klucel (hydroxypropylcellulose) (HPC) 97 % of control and 89 % of control | [1] 90 % of control | [2] 98 % of control | dose: 400.0 mg/kg/injection, schedule: Q04DX003 (ip), vehicle: Klucel (hydroxypropylcellulose) (HPC) 102 % of control

CCOC(=O)/C=C/C(=O)O.[Zn+2]
inactive: dose: 12.5 mg/kg/injection, schedule: Q04DX003 (ip), vehicle: saline 96 % of control and 91 % of control | [3] 96 % of control

O=C(Nc1ccc(F)cc1)c1ccc(C(=O)Nc2ccc(F)cc2)cc1
inactive: [4] 91 % of control | [5] 100 % of control | dose: 100.0 mg/kg/injection, schedule: Q01DX009 (ip), vehicle: saline with Tween-80 100 % of control | [6] 96 % of control | [7] 96 % of control | dose: 200.0 mg/kg/injection, schedule: Q01DX009 (ip), vehicle: saline with Tween-80 108 % of control | [8] 96 % of control | [9] 102 % of control | dose: 400.0 mg/kg/injection, schedule: Q01DX009 (ip), vehicle: saline with Tween-80 94 % of control

CCCCN(CCCl)C1c2ccccc2-c2ccccc21
inactive: dose: 25.0 mg/kg/injection, schedule: Q04DX002 (ip), vehicle: Klucel (hydroxypropylcellulose) (HPC) 106 % of control | dose: 50.0 mg/kg/injection, schedule: Q04DX002 (ip), vehicle: Klucel (hydroxypropylcellulose) (HPC) 95 % of control

CN=C(Nc1ccccc1C)SC
inactive: [3] 100 % of control | [5] 98 % of control | [10] 100 % of control | [7] 102 % of control | [11] 106 % of control

Clc1ccnc2[nH]ncc12
inactive: dose: 60.0 mg/kg/injection, schedule: Q01DX001 (ip), vehicle: other 97 % of control | dose: 120.0 mg/kg/injection, schedule: Q01DX001 (ip), vehicle: other 105 % of control

CCOC(=O)C(CC1CC(=O)Nc2ccccc21)C(=O)OCC (centres undefined)
inactive: [5] 95 % of control | [7] 97 % of control | [9] 101 % of control

c1ccc(-c2coc(-c3ccccc3)c2)cc1
inactive: dose: 100.0 mg/kg/injection, schedule: Q04DX002 (ip), vehicle: Klucel (hydroxypropylcellulose) (HPC) 101 % of control | dose: 200.0 mg/kg/injection, schedule: Q04DX002 (ip), vehicle: Klucel (hydroxypropylcellulose) (HPC) 101 % of control | dose: 400.0 mg/kg/injection, schedule: Q04DX002 (ip), vehicle: Klucel (hydroxypropylcellulose) (HPC) 97 % of control

COP1(=O)OC(C)C(C)O1 (centres undefined)
inactive: [5] 98 % of control | [7] 102 % of control | [9] 93 % of control

CSC(c1ccccc1)=[N+]1CCOCC1
inactive: dose: 50.0 mg/kg/injection, schedule: Q01DX009 (ip), vehicle: saline sonified 100 % of control | dose: 100.0 mg/kg/injection, schedule: Q01DX009 (ip), vehicle: saline sonified 94 % of control | [1] 102 % of control | dose: 200.0 mg/kg/injection, schedule: Q01DX009 (ip), vehicle: saline sonified 100 % of control | [2] 98 % of control

COc1cc(/C=N\NC(=S)Nc2ccc(S(=O)(=O)N3CCCCC3)cc2)cc(OC)c1OC
inactive: dose: 100.0 mg/kg/injection, schedule: Q04DX002 (ip), vehicle: saline with Tween-80 98 % of control | dose: 200.0 mg/kg/injection, schedule: Q04DX002 (ip), vehicle: saline with Tween-80 103 % of control | dose: 400.0 mg/kg/injection, schedule: Q04DX002 (ip), vehicle: saline with Tween-80 90 % of control

CC12CCC(=O)C=C1CCC1C2CCC2(C)C1CCC2(O)C#CCN(CCCl)CCCl (centres undefined)
inactive: dose: 100.0 mg/kg/injection, schedule: Q01DX001 (sc), vehicle: steriod suspending solution 96 % of control | dose: 200.0 mg/kg/injection, schedule: Q01DX001 (sc), vehicle: steriod suspending solution 104 % of control | dose: 400.0 mg/kg/injection, schedule: Q01DX001 (sc), vehicle: steriod suspending solution 98 % of control

CN(CCC#N)CCC#N
inactive: [10] 109 % of control | [11] 94 % of control | dose: 400.0 mg/kg/injection, schedule: Q04DX003 (ip), vehicle: saline 101 % of control

CC1(C)CC(=O)C=C(N2CCC(CCCC3CCN(C4=CC(=O)CC(C)(C)C4)CC3)CC2)C1
inactive: [4] 94 % of control | [6] 102 % of control | [8] 88 % of control
